According to paper PMC12423301, “Astrocytic monoamine oxidase B (MAOB)–gamma-aminobutyric acid (GABA) axis as a molecular brake on repair following spinal cord injury” (Signal Transduction and Targeted Therapy, 2025):
Values joined by “and” are separate entries in the source; they are usually repeats but may differ in a detail not shown here. Identical values can stand only once.

Key:
[1] = Preclinical pharmacokinetics in monkeys; format: in vivo, Cynomolgus monkey; conditions: for AUC(0-t) / Vd/F / Tmax / AUC(0-inf) / CL/F / half-life: cynomolgus monkey, in vivo
Experimental: In a pharmacokinetic study, plasma PK parameters were measured after a single oral administration of […]
dose group and at 4 to 6 hours after administration in the 30 mg/kg dose group. In the elimination phase, the […]
Systemic exposure (AUClast) to the test substance was 30587 and 80770 ng*hr/mL, respectively. […]

[2] = GLP toxicity tests in monkeys

## CS(=O)(=O)O.C[C@H](NCc1ccc(-c2ccc(C(F)(F)F)cc2)cc1)C(N)=O [KDS2010, (S)-2-(((4’-Trifluoromethylbiphenyl-4-yl)methyl)amino)propanamide methane-sulfonate]
[1]
  AUC(0-t): ~13000 ng·h/mL
[1]; iv, 5 mg/kg
  Vd/F: 3.714 ± 0.609 L/kg
[1]; cynomolgus monkeys
  increase in the AUC, 30 mg/kg vs 10 mg/kg: 5 fold and ~ 4.6 fold
[1]; male monkeys, 10 and 30 mg/kg
  increase rate of Cmax vs dose: slightly lower
[1]; male
  Tmax: 2 to 6 h
[1]; male, po, 10 mg/kg
  AUC(0-inf): 43600 ng·h/mL
  CL/F: 3.8 mL/min/kg
  Vd/F: 4.49 ± 0.61 L/kg
[1]; male, po, 10 mg/kg, t1/2
  half-life: 13.7 ± 0.48 h
[1]; male, po, 30 mg/kg
  AUC(0-inf): 202000 ± 76800 ng·h/mL
  CL/F: 2.58 mL/min/kg
  Vd/F: 6.27 ± 1.67 L/kg
[1]; male, po, 30 mg/kg, t1/2
  half-life: 16.9 h
[1]; male, cynomolgus, po, 10 mg/kg
  AUC(0-inf): 43600 ng·h/mL
  AUC(0-t): 30600 ng·h/mL
  Tmax: 2 h
[1]; male, cynomolgus, po, 10 mg/kg, mean half-life (t1/2)
  half-life: 13.7 h
[1]; male, cynomolgus, po, 10 mg/kg, t1/2
  half-life: 13.7 h
[1]; male, cynomolgus, po, 30 mg/kg
  AUC(0-inf): ~202000 ng·h/mL
  AUC(0-t): 80800 ng·h/mL
  Tmax: 4 to 6 h
[1]; male, cynomolgus, po, 30 mg/kg, mean half-life (t1/2)
  half-life: 31.1 h
[1]; male, cynomolgus, po, 30 mg/kg, t1/2
  half-life: ~31.1 h
[2]; oral 0, 10, 20, and 40 mg/kg for 4 weeks, 2 weeks recovery
  adverse effects: no adverse effects related to the test substance
[2]; oral 2 weeks, 100 mg/kg/day male and female, 50 mg/kg/day male
  mortality: a dying condition or mortality was observed
